# Values of other authors as cited in paper PMC4946565 (Bioorganic & medicinal chemistry letters, 2016).
# Test system: VMAT2
# Details: selectivity VMAT2 over DAT; ref [4], [9], [10]
structure (smiles),measurement,value
"CN1[C@@H](CC(=O)c2ccccc2)CCC[C@H]1C[C@H](O)c1ccccc1 [Lobeline, lobeline]",fold higher affinity for VMAT2 compared to DAT,about 100 fold
